For 91 compounds, melting point results are on record in a melting point compilation (Tetko et al.; mined from patent text by program, amines drawn as free bases though some values may be those of a salt).

As usually defined, the melting point is the temperature of the solid-liquid transition. Turning to `CCCC/C=C\CCCCCCCCCC1=CC(=O)C=C(OC)C1=O`, the melting point lay in the range of 39.5 to 41.5 °C.

As for `Cc1c(NC(=O)CC(C)(C)C)cc2c(c1C)OC(C)(C)C2(O)c1ccc(C(C)C)cc1` (stereo unspecified), the melting point was 119 to 121 °C.

In turn, `O=C(Nc1nc(-c2ccccn2)nc2ccccc12)C(F)(F)F` gave a melting point of 245 to 248 °C.

For `Clc1cccc2c(CN3CC=C(c4ccc5[nH]ccc5c4)CC3)n[nH]c12`, the melting point lay within 164 to 167 °C.

In the case of `O=C(CO)NNc1ccnc2c(NC(=O)c3c(Cl)cccc3Cl)cccc12`, the melting point was in the range of 248 to 250 °C.

Compound `CCN1CCN([C@](O)(CNC(=O)c2ccc(OCc3cc(C)nc4ccccc34)cc2)C(N)=O)CC1` registered a melting point of 184 °C.

Compound `CCn1c(C)nc(OCc2ccc(OCc3ccc(F)cc3)cc2)c(C)c1=O` came in with a melting point of 81 to 82.3 °C.

On to `Cc1cc(OCc2cnc(-c3ccc(C(F)(F)F)nc3)nc2C2CC2)ccc1OC(C)(C)C(=O)O`, for which the melting point lay within 185 to 186 °C.

Take `Nc1nc(N2CCC2)c2ncn(C3CC(O)C(CO)C3)c2n1` (single isomer, unassigned; (+)): the melting point lay in the range of 194 to 195 °C.

The compound `Cc1nc(-c2cn(CCC3CC3)nn2)sc1C(=O)NCc1cccnc1` came in with a melting point of 124 to 125 °C.

`COC(=O)C(=O)c1cc(OC)c(O)c([N+](=O)[O-])c1` registered a melting point of 155 to 157 °C.

In the case of `N#CC(=C1CSc2ccccc2N1)c1ccc(Cl)cc1`, the melting point was in the range of 137 to 139 °C.

In the case of `Cc1[nH]c(-c2ccccc2)c(N)c1C(=O)Nc1ccccc1`, the melting point was in the range of 271 to 273 °C.

Take `COC(=O)c1cc2cccc(C=O)c2[nH]1`: the melting point is 87 °C.

Compound `c1cncc(-c2ccnc3nccn23)c1` showed a melting point of 162 to 164 °C.

`N#CC(Cc1ccccc1Cl)C(=O)O` (stereo unspecified): the melting point was 132 to 134 °C.

Compound `CN(CC(=O)OC(C)(C)C)Cc1ccc(CCn2cnc3cc(-c4ccc(Cl)cc4)sc3c2=O)cc1` registered a melting point of 130 °C.

The compound `O=C(CCCN1CCCCC1)c1ccc2sc3ccc(C(=O)CCCN4CCCCC4)cc3c2c1` returned a melting point of 93 to 95 °C.

For the compound `CCOC(=O)c1cnc(-c2ccccc2OCC(C)C)[nH]c1=O`, the melting point lay in the range of 89 to 91 °C.

For `CCOc1nn(Cc2ccccc2OCc2nc(-c3ccccc3)oc2C)cc1CCC(=O)O`, the melting point was in the range of 127 to 128 °C.

For `COc1ccc(C(=S)Nc2ccccc2)cc1NS(=O)(=O)c1cc(Cl)cc(Cl)c1`, the melting point was 206 to 208 °C.

`O=C(Nc1cc([N+](=O)[O-])cc([N+](=O)[O-])c1)C1CC1` displayed a melting point of 147 to 149 °C.

With `CCCOc1ccc(-c2cccc3nc(N)c4ncn(CC(C)C)c4c23)cc1`, the melting point was 181 to 182 °C.

On to `CC12CCC(C1)C(C)(C)C2(S)CC#N` (stereo unspecified), for which the melting point is 170 to 171 °C.

`CCCSN(C)C(=O)Nc1ccc(Cl)c(Cl)c1`: the melting point came to 40 °C.

The compound `COC(=O)CCc1cnoc1-c1ccc(-c2ccccc2)cc1` yielded a melting point of 103 to 104 °C.

`Cc1ccc(-n2nc3c(cc2=O)CCc2cnccc2-3)cc1` yielded a melting point of 188 to 189 °C.

`COc1ccc(N2CCN(c3c(C)c(C)c4c(c3C)C(OCc3ccccn3)C(C)(C)O4)CC2)cc1` (stereo unspecified): the melting point is 120 to 121 °C.

The compound `O=C(O)C1=Cc2cc(-c3ccc(C(F)(F)F)cc3)ccc2OCC1` displayed a melting point of 273 to 276 °C.

Regarding `CC(c1oc2ccccc2c(=O)c1-c1cccc(F)c1)n1nc(-c2cc(O)ccc2Cl)c2c(N)ncnc21` (stereo unspecified), the melting point was 192 to 195 °C.

Consider `CCCn1c(=O)n(C2OC(CO)C(O)C2O)c2nc(N)[nH]c(=O)c21` (stereo unspecified), for which the melting point is 151 to 153 °C.

`COc1ccc(-c2ocnc2-c2cc(OC)c(Cl)c(OC)c2)cc1N` registered a melting point of 146 to 148 °C.

For `CCOC(=O)c1c(Nc2c(C)cccc2Cl)n[nH]c1C`, the melting point was 158 to 159 °C.

As for `CN(Cc1ccc(NC(=O)C2=Cc3cc(-c4ccc(O)cc4)ccc3S(=O)(=O)CC2)cc1)C1CCOCC1`, the melting point is 232 to 234 °C.

Turning to `COc1cccc(CN2CC(=O)Nc3ncc(-c4ccc(O)cc4)nc32)c1`, the melting point fell in the range of 282 to 283 °C.

In turn, `COc1ccc(Cn2c(C)cc3cn[nH]c(=O)c32)cc1` displayed a melting point of 212 to 213 °C.

For the compound `CCP(=O)(CC)Cc1ccccc1O`, the melting point is 127 °C.

The compound `Nc1cccc2c1OC1(CC1)C2=O` gave a melting point of 136 °C.

`COc1ccc(S(=O)(=O)N(Cc2cccnc2)c2c(C(=O)O)cc(C)cc2-c2ccco2)cc1` displayed a melting point of 82 °C.

`O=C1NCCNN1c1ccc(Cc2ccc(Cl)cc2)c(Cl)c1` registered a melting point of 157 to 158 °C.

In turn, `NC1CCN(c2c(F)cc3c(=O)c(C(=O)O)cn(C4CC4)c3c2F)C1` (stereo unspecified) returned a melting point of 290 to 292 °C.

The compound `O=C(CN1CCOCC1)Nc1cccc2c1C(=O)c1c-2n[nH]c1-c1ccc(N2CCOCC2)cc1` showed a melting point of 258 °C.

`COc1ccc2cc(C(C)C)ccc2c1` returned a melting point of 63.5 to 64.5 °C.

`CC1(Br)CN(C2SCN(c3cccc(OC(F)(F)F)c3)C2=O)C1=O` (stereo unspecified) had a melting point of 111 to 113 °C.

In turn, `CCCN1CC(c2cccc(Cl)c2)=C(c2ccc(S(C)(=O)=O)cc2)C1=O` yielded a melting point of 148 to 149 °C.

`Nc1cc(C(F)(F)C(F)(F)F)no1` showed a melting point of 86 to 87 °C.

On to `O=C(O)C1=Cc2cc(Cl)cc(C=NO)c2OC1C(F)(F)F` (stereo unspecified), for which the melting point lay within 247 to 248 °C.

Compound `O=CNc1ccc2c(c1)nc(/C=C/c1ccccc1)n2-c1ccccn1` came in with a melting point of 190 to 192 °C.

Take `CC(C)(Oc1ccc(Cl)cc1)C(=O)OCc1ncc(C(=O)O)s1`: the melting point turned out to be 124 °C.

`O=C(c1ccccc1)c1cnc2c(-c3cc(-c4ccccc4)cs3)cnn2c1O` had a melting point of 277 to 290 °C.

The compound `CCOC(=O)CCCSc1ncnc2c(O)n(C)nc12` displayed a melting point of 160 to 161 °C.

`Cc1cccc(-c2c(CC(=O)Nc3ccc(F)cc3C(F)(F)F)c(=O)oc3cc4c(cc23)CC=C4)c1` came in with a melting point of 196 to 197 °C.

Compound `CCCc1ccc(OCCc2c[nH]cn2)cc1` came in with a melting point of 168 to 171 °C.

With `CC(=O)OC1OC(CF)C(OC(C)=O)C1OC(C)=O` (stereo unspecified), the melting point is 98 to 101 °C.

As for `CC1(C)COC1(Cn1cncn1)c1ccc(F)cc1` (stereo unspecified), the melting point was determined as 110 °C.

Regarding `COCCn1cc(C2CCN(CCOc3ccccc3C(=O)O)CC2)c2ccccc21`, the melting point lay within 139 to 140 °C.

The compound `O=C1NC(=O)C(Cc2ccc(SCCCc3ccccc3)cc2)S1` (stereo unspecified) had a melting point of 88 to 89 °C.

On to `FC(F)(F)c1cc2[nH]c(N3CCN(c4ncccc4Cl)CC3)nc2cc1Cl`, for which the melting point lay within 209 to 211 °C.

Take `c1ccc(Oc2ccc(C3(Cn4cncn4)OCCCO3)cc2)cc1`: the melting point lay in the range of 129 to 130 °C.

Regarding `CC1=C(/C=C/C(C)=C/C=C/C(C)=C\C(=O)O)C(C)(C)C(O)CC1` (stereo unspecified), the melting point was in the range of 152 to 154 °C.

On to `COc1nc2ncccc2c2nc(SCc3ccccc3)nn12`, for which the melting point is 282 to 284 °C.

Turning to `COC(=O)NNC(=O)Nc1cc(Cl)cc(Cl)c1`, the melting point came out at 246 °C.

For `COc1cc2c(cc1O)CCCN(Cc1ccccc1OC)C2`, the melting point lay in the range of 136 to 137 °C.

On to `Cc1ccc(Br)c(S(=O)O)c1`, for which the melting point lay in the range of 120 to 122 °C.

`CCOc1cc2ncc(C#N)c(Nc3ccc(F)cc3)c2cc1OCC`: the melting point lay within 177 to 181 °C.

`Cc1nc2cc(C(c3ccccc3)n3ccnc3)ccc2n(N)c1=O` (stereo unspecified) registered a melting point of 193 °C.

`Cc1ccccc1Oc1cccc(CC(=O)O)c1[N+](=O)[O-]` came in with a melting point of 158 to 160 °C.

`O=S(=O)(c1cccs1)N1CCc2[nH]c3c(cnc4cc(Cl)ccc43)c2C1`: the melting point was over 250 °C.

Take `C=CCN1CC(c2ccc(NC(=O)OCc3ccccc3)cc2F)CCS1(=O)=O` (stereo unspecified): the melting point was in the range of 138 to 140 °C.

In the case of `O=c1c2cc(OCc3ccccc3)ccc2[nH]c2c([N+](=O)[O-])cc([N+](=O)[O-])c(Cl)c12`, the melting point fell in the range of 217 to 220 °C.

For the compound `COc1cc(C#N)ccc1-c1nc2cc3c(cc2[nH]1)NC(=O)C3(C)C`, the melting point lay in the range of 304 to 312 °C.

On to `O=C(O)Cc1ccc(C#CC#Cc2ccc(CC(=O)O)cc2)cc1`, for which the melting point was found to be 91 °C.

With `Cc1cc(Br)cc(C)c1OCC1CCC[N+](C)([O-])C1` (stereo unspecified), the melting point was 210 to 211 °C.

For the compound `CCCCCCc1c(Br)c(-c2ccccc2)n(-c2ccc(C)cc2)c1-c1ccccc1`, the melting point was 86 to 89 °C.

With `CCOC(=O)C=Cc1cnc(C(C)(C)C)nc1`, the melting point was 43 to 45 °C.

`COC(=O)c1c(Br)ccc2[nH]ncc12` gave a melting point of 164 to 165 °C.

In the case of `Cc1nc(S(C)(=O)=O)oc1C`, the melting point is 42 °C.

The compound `O=C(Oc1ccc(Cl)c(OCC2CC2(Cl)Cl)c1)N1CCSC1` (stereo unspecified) came in with a melting point of 74 to 79.5 °C.

For `O=C1C=CC(OC2CCCCC2)N1` (stereo unspecified), the melting point lay in the range of 65 to 66 °C.

Compound `Cc1ccccc1C(=O)Nc1ccc(C(=O)N2CCCC(OCC(=O)O)c3cc(Cl)ccc32)cn1` (stereo unspecified) had a melting point of 220 to 222 °C.

`CCCCCC1(C(=O)Oc2ccc(C(=O)O)cc2)CC2=C(C1)C(C)(C)CCC2(C)C` displayed a melting point of 156 to 158 °C.

`O=c1ncc(Br)cn1CCCl` gave a melting point of 185 to 186 °C.

Regarding `CC(=O)NCCNc1nc(Nc2ccc3[nH]nnc3c2)ncc1C(F)(F)F`, the melting point was over 300 °C.

`CCCCCCCCCCCCOC(=O)C(N)CCCNC(=N)N` (stereo unspecified) came in with a melting point of 125 to 130 °C.

In turn, `Cc1cccc2c(=O)[nH]cc(Br)c12` came in with a melting point of 201 to 210 °C.

As for `O=Cc1cc([N+](=O)[O-])c(O)c(O)c1Cl`, the melting point lay within 193 to 195 °C.

`Cc1cc(OCc2ccccc2)c(C23CC4CC(CC(C4)C2)C3)cc1Br`: the melting point was in the range of 138 to 139 °C.

The compound `Cc1nc(C(c2c(Cl)cccc2Cl)n2cncn2)nc(C)c1N` (stereo unspecified) showed a melting point of 158 to 159 °C.

For the compound `O=C(Nc1ccc2oc(=O)[nH]c2c1)C(=O)N1CCC(Cc2ccccc2)CC1`, the melting point is 187 to 190 °C.

In turn, `CCc1c2c(cc3c(=O)cc(C(=O)O)oc13)CCCC2` gave a melting point of 269 to 271 °C.

For `COC(=O)c1[nH]c2c(C)ccc(Cl)c2c1C`, the melting point was 122 to 123 °C.
